Like-named read-outs stand apart in the source and are kept apart here. Marks after values point to notes of the source that are not given here.
Tests used:
[1] = system: patients with advanced solid tumors; experiment: ECG assessment of QTcF interval, single-dose placebo-controlled crossover study; format: in vivo, human
Source text: This was a multicenter phase 1, single-dose, double-blind, placebo-controlled, randomized, 3-period, 6-sequence crossover study (NCT02009631). The primary objective was to evaluate the effect of veliparib on corrected QT interval using Fridericia’s formula (QTcF) in patients with solid tumors. Secondary objectives were to assess the pharmacokinetics, safety, and tolerability of single-dose veliparib.
(§1) Following screening, on the morning of day 1 of each period, eligible patients received a single dose of veliparib 200 mg, veliparib 400 mg, or placebo according to the treatment sequence assigned at randomization, administered orally between 8.00 and 10.00 AM, and approximately 30 min after the start of a low-fat breakfast. Each treatment period lasted 3–7 days, allowing for ≥3 days of drug washout between periods. After study completion, patients were permitted to enter an extension study (NCT02033551) to assess the safety of veliparib as monotherapy or in combination with chemotherapy.
Serial, resting 12-lead ECG measurements were performed at screening, on day 1 of each period at 0 h (pre-dose), and at 0.5, 1, 2, 3, 10, and 24 h post-dose, and at the final study visit on day 3 of period 3. ECGs were performed in triplicate except for a single ECG at screening. All ECG tracings were evaluated using the automated signal analysis algorithm of eECG/ABBIOS to measure predefined ECG intervals (RR, PR, QT, and QRS duration). All ECGs were manually verified and adjudicated by an expert over-reader who was blinded to treatment, time, and patient identification. T- and U-wave morphologies were independently reviewed by a qualified cardiologist who was similarly blinded to treatment, time, and patient identification. QTcF was determined as follows: QTCF=QT/RR3
A linear mixed effects model was used for the analysis of baseline-adjusted QTcF intervals (∆QTcF) for the first 24 h after dosing with either placebo, veliparib 200 mg, or veliparib 400 mg. The primary endpoint was the baseline-adjusted difference in mean QTcF between the veliparib 400 mg dose and placebo (∆∆QTcF) at six post-dose time points. Absence of QTcF effect was established if the 95 % upper confidence bound for the mean ∆∆QTcF between veliparib 400 mg and placebo was below the 10 ms threshold of clinical significance for all post-dose time points, in accordance with ICH E14 guidelines. For the QT/QTc, PR, and QRS interval variables, appropriate cutoff points defining the categories of the largest change from baseline were determined. For QTc, the cutoff points for these categories were as specified in the ICH E14 guidelines. The dataset for ECG evaluations included all available patients’ data.

[2] = Pharmacokinetic assessment of veliparib plasma concentrations after a single oral dose; format: in vivo, human; conditions: for half-life / AUC(0-inf) / Vd/F / AUC(0-t) / Cmax / Tmax: human, plasma; for Vd/F: read-out: VZ/F
Method: as §1
In each period, blood samples were collected for pharmacokinetic analysis at 0 h (pre-dose), and at 0.5, 1, 2, 3, 10, and 24 h post-dose. Plasma concentrations of veliparib were determined using a validated online solid-phase extraction followed by liquid chromatography with tandem mass spectrometric detection with a lower limit of quantitation for veliparib of 1.05 ng/mL. Veliparib pharmacokinetic parameters were estimated using non-compartmental methods.

[3] = system: patients with advanced solid tumors; experiment: Exposure-response model (veliparib plasma concentration vs ∆∆QTcF); format: in vivo, human; conditions: linear mixed effects model
Method: To establish the nonsignificance of a hysteresis effect, the criteria discussed in Darpo et al. were applied. Subsequently, linear mixed effects models were tested, with or without an additional lagged effect compartment, depending on the outcome of the test for hysteresis. A final model was chosen based on goodness of fit, plausibility of the parameters, and Bayesian information criterion (BIC). The relationship between ∆∆QTcF and veliparib concentration was modeled using the following equation: ΔΔQTcFi,j=ηi(2)+(Slope0+ηi(1))×Concentrationi,j+εi,j for subject i and time point j. η ^(2) represents the inter-subject variability on intercept (fixed effect on intercept is set to zero). Slope0 represents fixed effect on slope. η ^(1) represents the inter-subject variability of the Slope. ε i,j is the residual variability in subject i at time j.

[4] = system: patients with advanced solid tumors; experiment: Safety: treatment-emergent adverse events; format: in vivo, human; conditions: for TEAE: AE leading to discontinuation / TEAE: Abdominal pain / TEAE: Any AE / TEAE: Any fatal AE / TEAE: Any serious AE / TEAE: Back pain / TEAE: Constipation / TEAE: Decreased appetite / TEAE: Dehydration / TEAE: Diarrhea / TEAE: Dizziness / TEAE: Dysgeusia / TEAE: Fatigue / TEAE: Hypomagnesemia / TEAE: Myalgia / TEAE: NCI CTCAE grade 3 or 4 / TEAE: Nausea / TEAE: Neck pain / TEAE: Vomiting: N = 47; for TEAE: At least possibly related to study drug: N = 47, as assessed by investigator; for Deaths: N = 47, includes non-treatment-emergent deaths
Method: Safety was evaluated by AE monitoring, vital signs, physical examination, and laboratory testing throughout the study. Treatment-emergent AEs (TEAEs) were recorded from the time of first dose of study drug until 30 days from the last day of dosing or discontinuation, or until the first dose of study drug for patients enrolling in the NCT02033551 extension study. TEAEs were classified by Medical Dictionary for Regulatory Activities version 17.0 system organ class and preferred term. The severity of AEs was rated according to the National Cancer Institute Common Terminology Criteria for Adverse Events version 4.0. The safety population consisted of all patients’ data.

[5] = system: patients with BRCA1/2-mutated or wild-type tumors; parameters: method as in earlier work; conditions: cited from earlier work
dogs = conditions: preclinical studies in dogs; cited from earlier work
[6] = any of the three regimens (200 mg, 400 mg, placebo)
[7] = veliparib 200 mg single oral dose vs placebo
[8] = veliparib 400 mg single oral dose vs placebo
[9] = 200 mg single oral dose, N = 46, mean ± SD
[10] = 400 mg single oral dose, N = 46, mean ± SD
[11] = 200 mg single oral dose, N = 47, mean ± SD

## C[C@]1(c2nc3c(C(N)=O)cccc3[nH]2)CCCN1 [Veliparib]
[1]; [6]
  patients with QTcF value greater than 480 ms: No patient
  patients with change from baseline in QTcF interval greater than 30 ms: No patient
[1]; [7]
  maximum 95 % upper confidence bound for mean ∆∆QTcF: 6.1 ms
  maximum mean ∆∆QTcF: 3.6 ms
[1]; [8]
  maximum 95 % upper confidence bound for mean ∆∆QTcF: 8.9 ms
  maximum mean ∆∆QTcF: 6.4 ms
[2]; [9]
  AUC∞/dose: 59.9 ± 19.9^b (ng h/mL)/mg
  CL/F: 18.2 ± 5.09^b L/h
  Cmax/dose: 6.62 ± 1.89^b (ng/mL)/mg
  AUC(0-inf): 12000 ± 3980 ng·h/mL
  Vd/F: 141 ± 42.8 L
[2]; [10]
  AUC∞/dose: 63.8 ± 20.9 (ng h/mL)/mg
  CL/F: 17.3 ± 5.27 L/h
  Cmax/dose: 6.51 ± 2.12 (ng/mL)/mg
  AUC(0-inf): 25500 ± 8370 ng·h/mL
  AUC(0-t): 23800 ± 7100 ng·h/mL
  Cmax: 2610 ± 847 ng/mL
  Tmax: 2.5 ± 0.6 h
  Vd/F: 138 ± 48.4 L
[2]; oral, similar for the 200 mg and 400 mg dose groups, read-out: terminal phase elimination half-life (t1/2) (converted)
  half-life: ~5.5 h
[2]; 200 mg single oral dose, N = 46, harmonic mean ± pseudo SD, read-out: t1/2 (converted)
  half-life: 5.3 ± 1.1 h
[2]; [11]
  AUC(0-t): 11100 ± 3120 ng·h/mL
  Cmax: 1320 ± 378 ng/mL
  Tmax: 2.4 ± 0.7 h
[2]; 400 mg single oral dose, N = 46, harmonic mean ± pseudo SD, read-out: t1/2 (converted)
  half-life: 5.4 ± 1.3 h
[2]; similar for the 200 mg and 400 mg dose groups
  mean time to Cmax (Tmax): approximately 2.5 h
[2]; single oral doses 200 mg and 400 mg
  systemic exposure vs dose: increased in a dose-proportional manner
[3]; 200 mg dosing
  predicted mean ∆∆QTcF at geometric mean of Cmax: 2.45 ms
  predicted upper 95th percentile ∆∆QTcF at geometric mean of Cmax: 3.28 ms
[3]; 400 mg dosing
  predicted mean ∆∆QTcF at geometric mean of Cmax: 4.62 ms
  predicted upper 95th percentile ∆∆QTcF at geometric mean of Cmax: 6.19 ms
[4]; 200 mg
  TEAE: AE leading to discontinuation: 0 n (%)
  TEAE: Abdominal pain: 2 (4.3) n (%)
  TEAE: Any AE: 17 (36.2) n (%)
  TEAE: Any fatal AE: 0 n (%)
  TEAE: Any serious AE: 0 n (%)
  TEAE: Back pain: 0 n (%)
  TEAE: Constipation: 0 n (%)
  TEAE: Decreased appetite: 0 n (%)
  TEAE: Dehydration: 2 (4.3) n (%)
  TEAE: Diarrhea: 1 (2.1) n (%)
  TEAE: Dizziness: 0 n (%)
  TEAE: Dysgeusia: 0 n (%)
  TEAE: Fatigue: 2 (4.3) n (%)
  TEAE: Hypomagnesemia: 0 n (%)
  TEAE: Myalgia: 4 (8.5) n (%)
  TEAE: NCI CTCAE grade 3 or 4: 1 (2.1) n (%)
  TEAE: Nausea: 6 (12.8) n (%)
  TEAE: Neck pain: 0 n (%)
  TEAE: Vomiting: 2 (4.3) n (%)
  TEAE: At least possibly related to study drug: 7 (14.9) n (%)
  Deaths: 0 n (%)
[4]; 400 mg
  TEAE: AE leading to discontinuation: 1 (2.1) n (%)
  TEAE: Abdominal pain: 2 (4.3) n (%)
  TEAE: Any AE: 23 (48.9) n (%)
  TEAE: Any fatal AE: 0 n (%)
  TEAE: Any serious AE: 0 n (%)
  TEAE: Back pain: 2 (4.3) n (%)
  TEAE: Constipation: 1 (2.1) n (%)
  TEAE: Decreased appetite: 1 (2.1) n (%)
  TEAE: Dehydration: 0 n (%)
  TEAE: Diarrhea: 3 (6.4) n (%)
  TEAE: Dizziness: 3 (6.4) n (%)
  TEAE: Dysgeusia: 2 (4.3) n (%)
  TEAE: Fatigue: 3 (6.4) n (%)
  TEAE: Hypomagnesemia: 0 n (%)
  TEAE: Myalgia: 1 (2.1) n (%)
  TEAE: NCI CTCAE grade 3 or 4: 1 (2.1) n (%)
  TEAE: Nausea: 4 (8.5) n (%)
  TEAE: Neck pain: 2 (4.3) n (%)
  TEAE: Vomiting: 4 (8.5) n (%)
  TEAE: At least possibly related to study drug: 11 (23.4) n (%)
  Deaths: 0 n (%)
[4]; veliparib 200 mg
  TEAE myalgia: 8.5%
  TEAE nausea: 12.8%
  patients experiencing treatment-emergent adverse events: 36.2%
[4]; veliparib 400 mg
  TEAE diarrhea: 6.4%
  TEAE dizziness: 6.4%
  TEAE fatigue: 6.4%
  TEAE nausea: 8.5%
  TEAE vomiting: 8.5%
  patients experiencing treatment-emergent adverse events: 48.9%
[5]; at 400 mg twice daily, in patients with BRCA1/2-mutated and wild-type tumors, respectively
  dose-limiting toxicities: grade 3 nausea/vomiting and grade 2 seizure
[5]; phase 1 study, patients with BRCA1/2-mutated or wild-type tumors
  maximum tolerated dose of single-agent veliparib: 400 mg twice daily
dogs
  effect on corrected QT (QTc) interval: mild but concentration-dependent increase

Reference: PMC5083757, “Effect of veliparib (ABT-888) on cardiac repolarization in patients with advanced solid tumors: a randomized, placebo-controlled crossover study” (Cancer Chemotherapy and Pharmacology, 2016)
